In general, ED50 refers to the midpoint of the dose-response relation.

The test has as its system Mus musculus. The test is described as follows: Antitetrabenazine activity in ip dosed CD1 mouse assessed as inhibition of tetrabenazine-induced ptosis challenged with tetrabenazine after 30 mins later and after another 30 mins of drug treatment. Format: functional. The following applies: 0.5 h.
As for `NN1CCC2(CC1)OC(c1ccccc1)c1ccccc12` (stereo unspecified), the 50% effective dose (ED50) was found to be 6.8 mg/kg.
Then `O=NN1CCC2(CC1)OC(c1ccccc1)c1ccccc12` (stereo unspecified), with > 25 mg/kg; and `CC(C)NN1CCC2(CC1)OC(c1ccccc1)c1ccccc12` (stereo unspecified), with > 25 mg/kg.
Next, `ON1CCC2(CC1)OC(c1ccccc1)c1ccccc12` (stereo unspecified): 1.4 mg/kg.
Next, `O=C(ON1CCC2(CC1)OC(c1ccccc1)c1ccccc12)c1ccccc1` (stereo unspecified): > 25 mg/kg; `COc1ccc(C2OC3(CCN(O)CC3)c3ccccc32)cc1` (stereo unspecified): 3.5 mg/kg.
`COc1ccc2c(c1)C1(CCN(O)CC1)OC2c1ccccc1` (stereo unspecified): the ED50 stood at 4.7 mg/kg.
Next, `ON1CCC2(CC1)OC(c1ccc(F)cc1)c1ccccc12` (stereo unspecified): 4 mg/kg; `c1ccc(C2OC3(CCNCC3)c3ccccc32)cc1` (stereo unspecified): 0.5 mg/kg.
Then `CNCCCN1c2ccccc2CCc2ccccc21` [DESIPRAMINE], with 0.8 mg/kg; and `CN(C)CCCN1c2ccccc2CCc2ccccc21` [IMIPRAMINE], with 1.3 mg/kg.
